Test results as given in ChEMBL document CHEMBL1146998, “Cespitulactones A and B, new diterpenoids from Cespitularia taeniata” (Bioorg Med Chem Lett, 2006).
In brackets after ≈: the same amount, converted by molar mass.

Columns and labels:
Assay type in all cases: functional, cell-based
WiDr = assay: Cytotoxicity against human WiDr cell line by MTT assay
Daoy = assay: Cytotoxicity against human Daoy cell line by MTT assay
DLD-1 = assay: Cytotoxicity against human DLD1 cell line by MTT assay
HeLa = assay: Cytotoxicity against human HeLa cell line by MTT assay

C=C1CC[C@@H]2CCC3=C(C(=O)[C@@H](/C(C)=C/C(O)C1)[C@H]3O)C2(C)C (stereo not given in full) [CESPITULARIN F]
IC50 (WiDr): > 20 µg/mL | IC50 (Daoy): > 20 µg/mL

C=C1CC[C@@H]2CC[C@H](OC(=O)C/C(C)=C/[C@@H](O)C1)C(=O)C2(C)C [CESPITULACTONE A]
IC50 (WiDr): > 20 µg/mL | IC50 (Daoy): > 20 µg/mL | IC50 (DLD-1): 9.98 µg/mL (≈ 31.1 µM) | IC50 (HeLa): 3.69 µg/mL (≈ 11.5 µM)

C=C1CC[C@@H]2CC[C@H](OC(=O)C/C(C)=C/[C@@H](OC(=O)c3ccc(Cl)cc3)C1)C(=O)C2(C)C
IC50 (WiDr): > 20 µg/mL | IC50 (Daoy): > 20 µg/mL

C=C1CC[C@@H]2CCC3=C(C2(C)C)[C@@](OC)(C/C(C)=C/[C@@H](O)C1)OC3=O [CESPITULACTONE B]
IC50 (WiDr): > 20 µg/mL | IC50 (Daoy): > 20 µg/mL

CC(=O)O[C@@H]1/C(C(C)C)=C\C=C(/C)CC/C=C(\C)CC[C@@H]2O[C@@]2(C)[C@H]1OC(C)=O
IC50 (WiDr): 13.8 µg/mL (≈ 34.1 µM) | IC50 (Daoy): 16.9 µg/mL (≈ 41.8 µM)

C=C1CC[C@@H]2CCC3=C(C2(C)C)[C@@](O)(C/C(C)=C/[C@@H](O)C1)OC3=O [CESPITULARIN D]
IC50 (WiDr): > 20 µg/mL | IC50 (Daoy): > 20 µg/mL

C=C1CC[C@@H]2CC[C@H](OC(=O)C/C(C)=C/[C@@H](OC(=O)c3ccccc3)C1)C(=O)C2(C)C
IC50 (WiDr): > 20 µg/mL | IC50 (Daoy): > 20 µg/mL

C=C1CC[C@@H]2CC[C@H](OC(=O)C/C(C)=C/[C@@H](OC(C)=O)C1)C(=O)C2(C)C [CESPITULACTONE A MONOACETATE]
IC50 (WiDr): > 20 µg/mL | IC50 (Daoy): > 20 µg/mL

C=C1CC[C@@H]2CCC3=C(C(=O)[C@@H](/C(C)=C/[C@@H](OC(C)=O)C1)[C@H]3O)C2(C)C [CESPITULARIN J]
IC50 (WiDr): > 20 µg/mL | IC50 (Daoy): > 20 µg/mL
